Laboratory results from patent US4473587A, “Prostaglandin E1 analogues” (Ono Pharmaceutical Co., Ltd., priority 1982, dated 1984).
Like-named read-outs stand apart in the source and are kept apart here.

What was measured:
blood pressure = assay: hypotensive effect in the allobarbital anesthetized dog; assay type: in vivo; details: for hypotensive side-effect: in words, in comparison with known compounds D, E, F and G; for Hypotensive effect (E1 = 1): relative to PGE1 taken as 1.00, allobarbital anesthetised dog; for Hypotensive effect (E1 = 1) / duration of fall in blood pressure / fall in blood pressure: i.v.; for duration of fall in blood pressure / fall in blood pressure: allobarbital anesthetized dog
Method: (ii) by intravenous administration to the allobarbital anesthetized dog, compound B produced falls in blood pressure of 13 and 31 mmHg lasting 17 and 37 minutes at the doses of 1 and 2 μg/kg animal body weight, respectively.
(§1) In the Table, the values of side-effects are indicated relative to the activity of PGE1, taken as 1.00.
^(2) By intravenous administration to the allobarbital anesthetised

mice = assay: acute toxicity in mice by oral administration; assay type: in vivo, mouse; details: 10 mg/kg animal body weight, 5 cases
Source text: Therefore, the compounds of the present invention may be considered to be sufficiently safe and suitable for medical use.

uterine contraction = uterine contraction in the pregnant female rat; assay type: in vivo; details: 20th day of gestation, i.v., doses of 50 and 20 μg/kg (compound A and compound B)
[1] = test system: D(+)-galactosamine-induced liver damage; assay: D(+)-galactosamine-induced liver damage in rats; assay type: in vivo; details: D(+)-galactosamine 375 mg/kg i.p. twice, rat, 100 μg/kg oral five times, blood at 48 hrs, vs control
[2] = test system: carbon tetrachloride-induced liver damage; assay: carbon tetrachloride-induced liver damage in rats (plasma GOT, GPT); assay type: in vivo, rat; details: for cytoprotective activity compared with known compound H / cytoprotective activity: in words; for cytoprotective activity compared with known compound H: comparison with compound H; for cytoprotective activity: from the Table; for inhibition in vivo at 0.02 mg/kg / inhibition in vivo at 0.1 mg/kg / inhibition in vivo at 0.05 mg/kg / inhibition in vivo at 0.2 mg/kg: po, CCl4, rat, vs controls; for inhibition in vivo at 0.02 mg/kg: 20 μg/kg p.o.; for inhibition in vivo at 0.1 mg/kg: 100 μg/kg p.o.; for inhibition in vivo at 0.05 mg/kg: 50 μg/kg p.o.; for inhibition in vivo at 0.2 mg/kg: 200 μg/kg p.o.
Source text: In the following Table, the pharmacological activities, i.e. carbon tetrachloride-induced cytodamage inhibition as an example of cytoprotective activity, and hypotensive and platelet aggregation inhibition activities as examples of side-effects, of known compounds are compared with those of compounds A, B and C of the invention.
^(1) The method used was that described in the specification of U.S.

[3] = test system: adenosine diphosphate-induced blood platelet aggregation; assay: inhibition of adenosine diphosphate-induced blood platelet aggregation in platelet rich plasma of rats; assay type: cell-based, rat; details: for platelet aggregation inhibiting side-effect: in words, in comparison with known compounds D, E, F and G; for Platelet aggregation inhibition (E1 = 1): relative to PGE1 taken as 1.00, ADP-induced, platelet rich plasma of rats
Source text: as §1
^(3) Inhibition of adenosine diphosphateinduced blood platelet
aggregation in plateletrich plasma of rats.

[4] = test system: α-naphthylisothiocyanate-induced liver damage; assay: α-naphthylisothiocyanate-induced liver damage in rats; assay type: in vivo; details: rat, 100 μg/kg oral, vs controls
[5] = read-out: inhibition of plasma GOT (glutamic oxaloacetic transaminase)
[6] = read-out: inhibition of plasma GPT (glutamic pyruvic transaminase)

Compound | hypotensive side-effect (blood pressure) | Hypotensive effect (E1 = 1) (blood pressure) | deaths in acute toxicity test (mice) | cytoprotective activity compared with known compound H [2] | cytoprotective activity [2] | inhibition in vivo at 0.1 mg/kg [2, 5] [%] | platelet aggregation inhibiting side-effect [3] | Platelet aggregation inhibition (E1 = 1) [3] | other results
CCCCC1CC[C@H]([C@H](O)/C=C/[C@H]2[C@H](O)CC(=O)[C@@H]2CC(=O)CCCCCO)C1 (stereo partly drawn) [A, 2-decarboxy-2-hydroxymethyl-6-oxo-15-(3(RS)-butyl-1(S)-cyclopentyl)-16,17,18,19,20-pentanor-PGE1] | very weak side-effects | 1.2 | no deaths in 5 cases | superior in their cytoprotective activity to the known compound H | possess cytoprotective activity | 71.8 | very weak side-effects | 0.05 | stimulation of uterine contraction (uterine contraction): stimulated uterine contraction; inhibition of plasma GOT [1]: 20.4%; inhibition of plasma GPT [1]: 45.1%; inhibition of plasma bilirubin [1]: 36.2%; inhibition in vivo at 0.02 mg/kg [2, 5]: 56.6%; inhibition in vivo at 0.02 mg/kg [2, 6]: 58.8%; inhibition in vivo at 0.1 mg/kg [2, 6]: 53.6%
CCCC1CC[C@H]([C@H](O)/C=C/[C@H]2[C@H](O)CC(=O)[C@@H]2CC(=O)CCCCCO)C1 (stereo partly drawn) [B, 2-decarboxy-2-hydroxymethyl-6-oxo-15-(3(RS)-propyl-1(S)-cyclopentyl)-16,17,18,19,20-pentanor-PGE1] | very weak side-effects | 0.35 | two deaths in 5 cases | superior in their cytoprotective activity to the known compound H | possess cytoprotective activity | – | very weak side-effects | 0.05 | duration of fall in blood pressure (blood pressure; 1 μg/kg): 17 min; fall in blood pressure (blood pressure; 1 μg/kg): 13 mmHg; duration of fall in blood pressure (blood pressure; 2 μg/kg): 37 min; fall in blood pressure (blood pressure; 2 μg/kg): 31 mmHg; inhibition of plasma GOT [4]: 52.6%; inhibition of plasma GPT [4]: 62.5%; inhibition of plasma bilirubin [4]: 30.3%; stimulation of uterine contraction (uterine contraction): stimulated uterine contraction; inhibition of plasma GOT [1]: 40.0%; inhibition of plasma GPT [1]: 50.3%; inhibition of plasma bilirubin [1]: 44.2%; inhibition in vivo at 0.05 mg/kg [2, 5]: 29.6%; inhibition in vivo at 0.05 mg/kg [2, 6]: 21.5%
O=C(CCCCCO)C[C@H]1C(=O)C[C@@H](O)[C@@H]1/C=C/[C@@H](O)C1CCCC1 [C, 2-decarboxy-2-hydroxymethyl-6-oxo-15-cyclopentyl-16,17,18,19,20-pentanor-PGE1] | very weak side-effects | 0.77 | no deaths in 5 cases | superior in their cytoprotective activity to the known compound H | possess cytoprotective activity | – | very weak side-effects | – | inhibition in vivo at 0.2 mg/kg [2, 5]: 7.9%; inhibition in vivo at 0.2 mg/kg [2, 6]: 29.9%
CCCC1CCC([C@H](O)/C=C/[C@H]2[C@H](O)CC(=O)[C@@H]2CC(=O)CCCCC(=O)O)C1 (stereo partly shown) [D, 6Oxo-15-(3RS-propyl-1RS-cyclopentyl)-16,17,18,19,20-pentanor-PGE1, reference compound] | – | 13 | – | – | possess cytoprotective activity | – | – | 48.4 | –
CCCC1CCC([C@H](O)/C=C/[C@H]2[C@H](O)CC(=O)[C@@H]2CC(=O)CCCCC(=O)OC)C1 (stereo partly shown) [E, 6Oxo-15-(3RS-propyl-1RS-cyclopentyl)-16,17,18,19,20-pentanor-PGE1 methyl ester, reference compound] | – | 25.7 | – | – | possess cytoprotective activity | 77 | – | 58.6 | –
CCCCC1CCC([C@H](O)/C=C/[C@H]2[C@H](O)CC(=O)[C@@H]2CC(=O)CCCCC(=O)OC)C1 (stereo partly shown) [F, 6Oxo-15-(3RS-butyl-1RS-cyclopentyl)-16,17,18,19,20-pentanor-PGE1 methyl ester, reference compound] | – | 12.6 | – | – | possess cytoprotective activity | – | – | 51.0 | –
CCCC1CCC([C@H](O)/C=C/[C@H]2[C@H](O)CC(=O)[C@@H]2CC(=O)CCCCC(=O)OC)CC1 (stereo partly shown) [G, 6Oxo-15-(4RS-propyl-1RS-cyclohexyl)-16,17,18,19,20-pentanor-PGE1 methyl ester, reference compound] | – | 6.2 | – | – | possess cytoprotective activity | – | – | 19.7 | –
CCCCC[C@H](O)/C=C/[C@H]1[C@H](O)CC(=O)[C@@H]1CC(=O)CCCCCO [H, 2Decarboxy-2-hydroxymethyl-6-oxo-PGE1, reference compound] | – | – | – | – | – | 3.4 | – | – | inhibition in vivo at 0.1 mg/kg [2, 6]: -0.07%
